Source: PMC10301603, “Potent and Selective Benzothiazole-Based Antimitotics with Improved Water Solubility: Design, Synthesis, and Evaluation as Novel Anticancer Agents” (Pharmaceutics, 2023)

How the values were obtained:
HeLa cells [1] = experiment: Immunofluorescence of cellular microtubules (confocal microscopy); format: cell-based, human; conditions: 24 h, 8 and 14 200 nM, 9 500 nM
Description: (§1) The 8 × 10^4 HeLa, MCF7, and U87 MG cells were seeded on 0.01% poly-L-lysine pre-coated square glass coverslips ([…]) deposited on 6-well plates (1 coverslip/well) and incubated in complete DMEM medium (see above) at 37 °C and 5% CO2 atmosphere for 24 h. Then, the culture medium was replaced by fresh complete DMEM, and cells were incubated in the presence or absence of selected compounds for 24 h. Untreated cells were used as negative controls. […] In that way, compounds with similar antiproliferative potencies were tested at the same concentrations. HeLa cells were treated with 200 nM of compounds 8 and 14 and 500 nM of compound 9; MCF7 cells were treated with 100 nM of compounds 8 and 14 and 500 nM of compound 9; and U87 MG cells were treated with 50 nM of compound 8 and 100 nM of compounds 9 and 14. After incubation, medium was removed and coverslips were washed three times with PBS, fixed in 4% formaldehyde in PBS for 10 min, permeabilized with 0.5% Triton X-100 (Sigma-Aldrich, St. Louis, MO, USA) in PBS for 90 s at 4 °C, and blocked with 10% BSA in PBS for 30 min. After four washes with PBS, the coverslips were incubated for 1 h with anti-α-tubulin mouse monoclonal antibody (Sigma-Aldrich, St. Louis, MO, USA), and diluted 1:200 in PBS containing 3% BSA. After four washes wish PBS, coverslips were incubated, in darkness, with fluorescent secondary antibody Alexa Fluor 488 goat anti-mouse IgG (Molecular Probes, Invitrogen, Eugenen, OR, USA), and diluted 1:400 in PBS containing 1% BSA for 1.5 h. After four washes with PBS, a drop of ProLong™ Gold Antifade Mountant containing DAPI (ThermoFisher, Waltham, MA, USA) was added for cell nuclei staining. Samples were analyzed via confocal microscopy using a LEICA SP5 microscope DMI-6000V model coupled to a LEICA LAS AF software computer.

U87MG cells [2] = experiment: as above; format: cell-based, human; conditions: 24 h, 8 50 nM, 9 and 14 100 nM
Description: as §1

MCF7 cells [3] = experiment: as above; format: cell-based, human; conditions: MCF7, 24 h; 8 and 14 100 nM, 9 500 nM
Description: as §1

U87MG cells [4] = experiment: Lactate dehydrogenase (LDH) release assay; format: cell-based, human; conditions: 72 h
Description: CytoTox96® Non-Radioactive Cytotoxicity Assay kit (Promega, Madison, WI, USA) was used to measure the release of lactate dehydrogenase (LDH) by following the previously described method in [46]. Briefly, U87 MG or HEK-293 cells were incubated for 72 h with compounds 8, 9, or 14 at concentrations ranging from 10^−9 to 10^−6 M for U87 MG cells, and from 10^−4 to 10^−3 M for HEK-293 cells. After treatment, the supernatants were collected, and the intact attached cells were lysed using 0.1% (w/v) Triton X-100 in (0.9%) NaCl solution. Both the LDH released to culture media, as well as the LDH content within the cells, were determined spectrophotometrically at 490 nm on a 96-well plate reader (Infinite 200, Tecan, Salzburg, Austria) by following the manufacturer’s instructions. LDH release was defined by the ratio of LDH released/total LDH present in the cells, with the total LDH being 100%. All the samples were run in quadruplicate.

HeLa cells [5] = experiment: Apoptotic cell death quantification (Annexin V-FITC/PI); format: cell-based, human; conditions: 72 h, 8 and 14 200 nM, 9 500 nM
Description: (§2) Annexin V-FITC/PI apoptosis detection kit (Immunostep, Salamanca, Spain) was used to quantify HeLa, MCF7, or U87 MG cells by following the manufacturer’s guidelines. An amount of 5 × 10^4 cells/mL were seeded in 12-well plates (1 mL/well) and incubated in complete DMEM medium (see above) at 37 °C and 5% CO2 atmosphere for 24 h. Then, the medium was replaced with fresh complete DMEM in the presence or absence of the selected compounds (8, 9, and 14). The concentration of the compounds was selected according to their IC50 value for the antiproliferative activity in each cell line (see above, Section 2.4.4). HeLa cells were treated with 200 nM of compounds 8 and 14 and 500 nM of compound 9; MCF7 cells were treated with 100 nM of compounds 8 and 14 and 500 nM of compound 9; and U87 MG cells were treated with 50 nM of compound 8 and 100 nM of compounds 9 and 14. Untreated cells were used as negative controls. After 72 h of incubation, cells were collected, centrifugated, resuspended in the Annexin V binding buffer, and stained with Annexin V-FITC/PI. Cells were then incubated in darkness for 15 min at room temperature. Samples were analyzed using BD Accuri™ C6 Plus Flow Cytometer (BD Biosciences), and acquired data were analyzed using BD Accuri™ C6 Software (version 1.0.264.21).

U87MG cells [6] = experiment: as above; format: cell-based, human; conditions: U87 MG, 72 h; 8 50 nM, 9 and 14 100 nM
Description: as §2

MCF7 cells [7] = experiment: as above; format: cell-based, human; conditions: MCF7, 72 h; 8 and 14 100 nM, 9 500 nM
Description: as §2

bovine brain tubulin = experiment: Tubulin polymerization inhibition (turbidimetry); format: biochemical; conditions: for % TPI: compounds tested at 10 µM, with respect to the negative control; for IC50: concentration inhibiting 50% of microtubular protein polymerization in vitro, read-out: TPI IC50
Procedure, shortened: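 Turbidimetric assay using calf-brain microtubular protein: polymerization started by a shift from 4 °C to 37 °C and followed by absorbance at 450 nm. Percent inhibition calculated against a ligand-free control; IC50 determined only for compounds giving >50% inhibition at 10 µM. Triplicates in two independent experiments using separate protein preparations.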

In the case of `COc1ccc2nc(N(C=O)Cc3cccnc3)sc2c1` [Compound 14, N-(6-methoxybenzo[d]thiazol-2-yl)-N-(pyridin-3-ylmethyl)formamide], the “effect on the microtubule network” value (HeLa cells [1]) is reported as “disruption of the microtubule network”, the “effect on the microtubule network” value (U87MG cells [2]) is reported as “disruption of the microtubule network” and the “effect on the microtubule network” value (MCF7 cells [3]) is reported as “disruption of the microtubule network”. The LDH release (U87MG cells [4]; 1 nM) was “around 10%”, the LDH release (U87MG cells [4]; 10 nM) was ~20% and the “cell death (LDH release)” value (U87MG cells [4]; above 100 nM) was 100%. The “early and late apoptosis (apoptotic cells)” value (HeLa cells [5]) was 86%, the “cells in early or late apoptosis (response to Annexin V)” value (U87MG cells [6]) was 67% and the “apoptosis (apoptotic cells)” value (MCF7 cells [7]) was 71%. The “% TPI” value (bovine brain tubulin) was 87% and the IC50 (bovine brain tubulin) was 4.1 µM.
`CCNC(=O)N(Cc1cccnc1)c1nc2ccc(OC)cc2s1` [Compound 8] was tested, and the “effect on the microtubule network” value (HeLa cells [1]) was “disruption of the microtubule network”, the “effect on the microtubule network” value (U87MG cells [2]) was “disruption of the microtubule network” and the “effect on the microtubule network” value (MCF7 cells [3]) was “disruption of the microtubule network”. For the same molecule, the LDH release (U87MG cells [4]; 1 nM) was ~40%, the LDH release (U87MG cells [4]; 10 nM) was “over 60%” and the LDH release (U87MG cells [4]; 100 nM) was 100%. For the same molecule, the “early and late apoptosis (apoptotic cells)” value (HeLa cells [5]) was 93%, the “cells in early or late apoptosis (response to Annexin V)” value (U87MG cells [6]) was 80% and the “Alive cells (PI−, AnV−)” value (MCF7 cells [7]) was 46%. For the same molecule, the “apoptosis (apoptotic cells)” value (MCF7 cells [7]) was 47%, the “% TPI” value (bovine brain tubulin) was 100% and the IC50 (bovine brain tubulin) was 2.9 µM.
